According to patent US8937068B2, “Pyridopyrazine derivatives and their use” (Zentaris GmbH, priority 2005, dated 2015):

Tests used:
PI3K → pAkt = test: Cellular substrate phosphorylation (Western Blotting), PI3K substrate pAkt; format: cell-based; conditions: 50 μM, 5 h
Description: (§1) This method can be used to predict whether the kinase modulator under study also achieves the desired effect in a cellular context, i.e. in this case, a substrate protein downstream of the target kinase is investigated for its phosphorylation status. For this purpose, the cells incubated with substance are lysed and the total protein separated on a reducing polyacrylamide gel. The proteins are then transferred to a PVDF membrane by means of Western Blotting and the substrate bands sought are made visible with specific antibodies and a suitable detection method. The substrate proteins downstream of the target kinases are detected simultaneously with a respectively special anti-phospho-antibody and at the same time a total antibody which recognizes the substrate total protein. This simultaneous measurement can be made using the duplex technology of the ODYSSEY imagers (LiCOR). The intensity of the total substrate bands is used for normalising or quantifying the phosphorylation inhibition or activation.
(§2) Suitable tumour cell lines (e.g. BxPC3, Hct116 or MDA MB468) were injected into six-well microtitre plates in a defined cell number (e.g. 350 000 cells/well for BxPC3 and Hct116) in the respective standard complete medium and then incubated overnight at 37° C., 5% CO2 and 95% air humidity. The cells were then incubated for a further 24 h under serum-reduced conditions i.e. in the respective medium but with only 0.25% serum. The test substances were prepared as stock solutions (10 mM) in DMSO and incubated with the cells in final concentrations of 5, 15.8 and 50 μM for 5 h. This was followed by cell lysis in 25 mM Tris, 150 mM NaCl, 10 mM Na-pyrophosphate, 2 mM EGTA, 25 mM β-glycerophosphate, 25 mM NaF, 10% glycerine, 0.75% NP-40, 100 μM NaVO4 buffer. Following protein quantification by means of BCA (bicinchonic acid protein assay kit, Sigma) Assay, protein quantities of about 20 μg per track were separated on a Lämmli polyacrylamide gel and then transferred to a PVDF membrane (Millipore) by means of Semi-Dry Western-Blotting at 0.8 mA/cm^2 for 1 h. This was followed by pre-hybridisation of the membrane for 1 hour in I-block reagent (Applied Biosystems) and incubation overnight with the specific antibodies. To determine the Erk and PI3K inhibition, the respectively downstream substrates Rsk1 were detected with the total antibody (Rsk #sc-231g C-21, Santa Cruz) and the phospho-antibody (Phospho-p90RSK (S380) #9341, NEB Cell Signalling) and Akt was detected with the total antibody (Akt1 #sc-1618 C-20, Santa Cruz) and the phospho-antibody (Phospho-Akt (Ser 473) #9271, NEB Cell Signaling). After washing the membrane, secondary antibody incubation was carried out with anti-rabbit IR Dye 800 (#611-732-127, Rockland) for the phospho-antibody and anti-goat Alexa Fluor 680 (#A-21081, Molecular Probes) for the total protein-antibody. After incubating for 30 min at room temperature in the dark, the hybridisation of the detection antibody on the membrane was detected by scanning in the ODYSSEY imager (LiCOR).
(§3) The reduction of the fluorescence intensity of the phospho-substrate bands (pRsk and pAkt) is given in the table below as % inhibition and relates to the following formula:
(§4) The band intensity (fluorescence intensity) of the respective non-inhibited (without substance) phospho-substrates was used as 100% control.

Jnk1 + Jnk2 = test: Cell-free kinase assay (ALPHA technology), Jnk1 + Jnk2; format: biochemical, human; conditions: 10 μM ATP
Method in brief: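 Recombinant human GST- or His-tagged kinases were assayed for 1 h with ALPHA bead detection read after overnight standing. For PI3Kalpha: 1 ng enzyme, 100 μM ATP, 20 μM PIP2 in Hepes pH 7.4, detected by GST:Grp1/biotin-PIP3 competition. The p38alpha and Jnk assays followed the MAPK format (10 μM ATP, biotin-MBP, anti-phospho-MBP); IC50 from %-inhibition.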

Erk → pRsk = test: Cellular substrate phosphorylation (Western Blotting), Erk substrate pRsk; format: cell-based; conditions: 50 μM, 5 h
Description: as §1, §2, §3, §4

| Structure (SMILES) | IC50 (Jnk1 + Jnk2) [µM] | Inhibition of cellular substrate phosphorylation PI3K → pAkt (PI3K → pAkt) [%] | Inhibition of cellular substrate phosphorylation Erk → pRsk (Erk → pRsk) [%] | inhibition at 50 µM (PI3K → pAkt) [%] | inhibition at 50 µM (Erk → pRsk) [%] |
| --- | --- | --- | --- | --- | --- |
| C=CCNC(=S)Nc1ccc2ncc(-c3ccc(O)cc3)nc2n1 [Compound 30, 1-allyl-3-[3-(4-hydroxy-phenyl)-pyrido[2,3-b]pyrazin-6-yl]-thiourea] | 21.8 |  |  | 100 | 90 |
| CCNC(=O)Nc1ccc2ncc(-c3cnn(C)c3)nc2n1 [Compound 173, 1-Ethyl-3-[3-(1-methyl-1H-pyrazol-4-yl)-pyrido[2,3-b]pyrazin-6-yl]-urea] | 2.9 |  |  | 50 | 90 |
| CCNC(=O)Nc1ccc2ncc(-c3ccc(O)c(OC)c3)nc2n1 [Compound 124, 1-Ethyl-3-[3-(4-hydroxy-3-methoxy-phenyl)-pyrido[2,3-b]pyrazin-6-yl]-urea] | 1 |  |  | 90 | 90 |
| O=C(NCCCCO)Nc1ccc2ncc(-c3ccccc3)nc2n1 [Compound 146, 1-(4-Hydroxy-butyl)-3-(3-phenyl-pyrido[2,3-b]pyrazin-6-yl)-urea] | 3.3 |  |  | 10 | 100 |

Continued, in another order:

| IC50 (Jnk1 + Jnk2) [µM] | Structure (SMILES) | Inhibition of cellular substrate phosphorylation PI3K → pAkt (PI3K → pAkt) [%] | Inhibition of cellular substrate phosphorylation Erk → pRsk (Erk → pRsk) [%] | inhibition at 50 µM (PI3K → pAkt) [%] | inhibition at 50 µM (Erk → pRsk) [%] |
| --- | --- | --- | --- | --- | --- |
| 4.7 | CCNC(=O)Nc1ccc2ncc(-c3ccc(O)c(OC)c3)nc2n1.Cc1ccc(S(=O)(=O)O)cc1 [Compound 183, 1-Ethyl-3-[3-(4-hydroxy-3-methoxy-phenyl)-pyrido[2,3-b]pyrazin-6-yl]-urea p-Toluolsulfonate] | 80 | 80 |  |  |
| > 100 | CCNC(=O)Nc1ccc2ncc(Nc3ccc(C)cc3)nc2n1 [Compound 150, 1-Ethyl-3-(3-p-tolylamino-pyrido[2,3-b]pyrazin-6-yl)-urea] |  |  | 90 | 0 |
